How the values were obtained:
[1] = Thermal stability: heating the sample for 24 h at 60° C. in air; assay type: physicochemical
Description: The thermal stability of the Form V was evaluated by heating the sample for 24 h at 60° C. in air. The dihydrate (Form V) readily dehydrates within 10 min of heating losing approximately 8.5% by weight (corresponding to ca. 2 moles of water per mole base).

[2] = Hygroscopicity: moisture sorption isotherms on a dynamic moisture balance; assay type: physicochemical
Description: The moisture sorption isotherms of Form V was determined at 25° C. using a dynamic moisture balance (MB-300G) (VTI Corp., Hialeah, Fla.) calibrated for weight with 10 to 100 mg standard weights and for moisture with polyvinylpyrrolidone. The value for the weight equilibrium criterion for each relative humidity is calculated based on the weight of the sample and the drift in the balance (0.001 mg). A value of 8 min. was used for the time criteria. The moisture sorption profile of the dihydrate (Form V) (Adsorption 1/Desorption 1) after drying in vacuo for 2 h is shown in FIG. 5. Form V dehydrates on drying to a different crystal form as shown by vacuum X-ray powder diffraction in FIG. 6, losing approximately 8% by weight. For purposes of this specification, this dehydrated dihydrate is identified as […]. This form appears to be the same as that obtained by heating the sample at 125° C., but different from that obtained on drying at 60° C. in air for 24 h. The latter form is identified as Form III. The Form II (dehydrated dihydrate) is hygroscopic converting to a hemihydrate between ca. 10-40% RH and a tetrahydrate at 90% RH (FIG. 5 and FIG. 7). However, the XRPD pattern for the hemihydrate is the same as that of the dehydrated dihydrate (Form II). For purposes of this specification this hemihydrate and tetrahydrate are identified as Form II and Form IV, respectively.
Form I is non-hygroscopic with a maximum weight change of ca. 1% at 90% RH. On desorption, the tetrahydrate (Form IV) remains unchanged between 90-60% RH but converts to dihydrate (Form V) at 45-15% RH (FIG. 5 and FIG. 8).
Since the X-ray diffraction patterns of the dehydrated dihydrate and the hemihydrate are the same, we conclude that the hemihydrate is isostructural with the dehydrated dihydrate form obtained on drying in vacuo. […]

| Compound | time of heating until dehydration [1] [min] | weight lost on heating (dehydration) [1] | weight lost on drying (dehydration to a different crystal form) ([2]; drying in vacuo for 2 h) | Hygroscopicity (in words) ([2]; 25° C., dynamic moisture balance) | maximum weight change ([2]; at 90% RH, 25° C.) |
| --- | --- | --- | --- | --- | --- |
| Compound IX Dihydrate [Dihydrate (Form V)] | ≤ 10 | approximately 8.5 % by weight | approximately 8 % by weight |  |  |
| O=C(NC1CC1)c1cn(-c2cccc(C#Cc3ccc[n+]([O-])c3)c2)c2ncccc2c1=O [Form I, N-Cyclopropyl-1-{3-[(1-oxidopryidin-3-yl)ethynyl]phenyl}-4-oxo-1,4-dihydro-1,8-naphthyridine-3-carboxyamide] |  |  |  | non-hygroscopic | ca. 1% |
